Measured values published in ChEMBL document CHEMBL3286206, “Conventional and microwave assisted synthesis of pyrazolone Mannich bases possessing anti-inflammatory, analgesic, ulcerogenic effect and antimicrobial properties” (Bioorg Med Chem Lett, 2014).
In brackets after ≈: the same amount, converted by molar mass. Activity calls are given as the source filed them. The calls are words filed in the database; no cut-off is given here.

Key:
Staphylococcus aureus [1] = experiment: Antimicrobial activity against Staphylococcus aureus assessed as zone of inhibition >8 mm by twofold serial dilution method; type: functional
Escherichia coli [2] = experiment: Antimicrobial activity against Escherichia coli assessed as zone of inhibition >8 mm by twofold serial dilution method; type: functional
Rattus norvegicus [3] = experiment: Ulcerogenic effect in po dosed rat assessed as lesions of bleedings; type: toxicity, organism-based; details: in vivo
Micrococcus luteus [4] = experiment: Antimicrobial activity against Micrococcus luteus assessed as zone of inhibition by agar diffusion method; type: functional
Staphylococcus aureus [5] = experiment: Antimicrobial activity against Staphylococcus aureus assessed as zone of inhibition by agar diffusion method; type: functional
Rattus norvegicus [6] = experiment: Antiinflammatory activity in albino rat assessed as inhibition of carrageenan-induced paw edema at […], po administered 1 hr prior to carrageenan challenge measured after 4 hrs relative to control; type: functional
Mus musculus [7] = experiment: Analgesic activity in mouse assessed as inhibition of acetic acid-induced writhing measured as potency at 0.03 mM/kg; set-up: scale not given: the % may be the effect or the level left
Rattus norvegicus [8] = experiment: Antiinflammatory activity in albino rat assessed as inhibition of carrageenan-induced paw edema at […], po administered 1 hr prior to carrageenan challenge measured after 6 hrs relative to control; type: functional
Mus musculus [9] = experiment: Analgesic activity in mouse assessed as inhibition of acetic acid-induced writhing at 0.03 mM/kg
Klebsiella pneumoniae [10] = experiment: Antimicrobial activity against Klebsiella pneumoniae assessed as zone of inhibition >8 mm by twofold serial dilution method; type: functional
Escherichia coli [11] = experiment: Antimicrobial activity against Escherichia coli assessed as zone of inhibition by agar diffusion method; type: functional
Micrococcus luteus [12] = experiment: Antimicrobial activity against Micrococcus luteus assessed as zone of inhibition >8 mm by twofold serial dilution method; type: functional
Rattus norvegicus [13] = experiment: Antiinflammatory activity in albino rat assessed as inhibition of carrageenan-induced paw edema measured as paw thickness at 0.03 mmol/kg, po administered 1 hr prior to carrageenan challenge measured after 6 hrs (reference value: 1.081 +/- 0.257 mm)
Rattus norvegicus [14] = experiment: Antiinflammatory activity in albino rat assessed as inhibition of carrageenan-induced paw edema measured as paw thickness at 0.03 mmol/kg, po administered 1 hr prior to carrageenan challenge measured after 4 hrs (reference value: 1.260 +/- 0.172 mm)
Klebsiella pneumoniae [15] = experiment: Antimicrobial activity against Klebsiella pneumoniae assessed as zone of inhibition by agar diffusion method; type: functional
Micrococcus luteus [16] = experiment: Antimicrobial activity against Micrococcus luteus assessed as growth inhibition by agar diffusion method; type: functional
Staphylococcus aureus [17] = experiment: Antimicrobial activity against Staphylococcus aureus assessed as growth inhibition by agar diffusion method; type: functional

Row | SMILES | MIC (Staphylococcus aureus [1]) | MIC (Escherichia coli [2]) | Activity (Rattus norvegicus [3]) | diameter of the inhibition zone (DIZ) (Micrococcus luteus [4]) | diameter of the inhibition zone (DIZ) (Staphylococcus aureus [5]) | inhibition in vivo (Rattus norvegicus [6]) | Activity (Mus musculus [7]) | inhibition in vivo (Rattus norvegicus [8]) | inhibition (INH) (Mus musculus [9]) | MIC (Klebsiella pneumoniae [10]) | diameter of the inhibition zone (DIZ) (Escherichia coli [11]) | MIC (Micrococcus luteus [12]) | Activity (Rattus norvegicus [13]) | Activity (Rattus norvegicus [14]) | diameter of the inhibition zone (DIZ) (Klebsiella pneumoniae [15]) | growth inhibition (GI) (Micrococcus luteus [16]) | growth inhibition (GI) (Staphylococcus aureus [17])
1 | CC1=NN(C(=O)c2cc3ccccc3oc2=O)C(=O)C1CNc1ccccn1 (configuration not stated) | 66.4 µM (≈ 25 µg/mL) | 133 µM (≈ 50 µg/mL) | Toxic | 12 mm | 15 mm | 31.1% | 43.4% | 50.3% | 29.87% | 66.4 µM (≈ 25 µg/mL) | 15 mm | 66.4 µM (≈ 25 µg/mL) | 1.961 mm | 2.389 mm | 15 mm |  | 
2 | CC1=NN(C(=O)c2cc3ccccc3oc2=O)C(=O)C1CNc1ccc(S(N)(=O)=O)cc1 (configuration not stated) | 55 µM (≈ 25 µg/mL) | 27.5 µM (≈ 12.5 µg/mL) | Non-toxic | inactive | 15 mm | 68.9% | 94.33% | 77.9% | 64.93% | 55 µM (≈ 25 µg/mL) | 12 mm |  | 0.873 mm | 1.079 mm | 15 mm | inactive | 
3 | O=C(O)c1cn(C2CC2)c2cc(N3CCNCC3)c(F)cc2c1=O [CIPROFLOXACIN] | 9.43 µM (≈ 3.12 µg/mL) | 4.72 µM (≈ 1.56 µg/mL) |  | 25 mm | 24 mm |  |  |  |  | 0.59 µM (≈ 0.195 µg/mL) |  | 0.59 µM (≈ 0.195 µg/mL) |  |  | 17 mm |  | 
4 | CC1=NN(C(=O)c2cc3ccccc3oc2=O)C(=O)C1CNc1ccc(Cl)cc1 (configuration not stated) |  | 30.5 µM (≈ 12.5 µg/mL) | Toxic | 18 mm | inactive | 43.5% | 103.78% | 71.5% | 71.43% | 61 µM (≈ 25 µg/mL) | 12 mm | 61 µM (≈ 25 µg/mL) | 1.125 mm | 1.956 mm | 12 mm |  | inactive
5 | CC1=NN(C(=O)c2cc3ccccc3oc2=O)C(=O)C1CNc1ccc([N+](=O)[O-])cc1 (configuration not stated) | 119 µM (≈ 50 µg/mL) | 119 µM (≈ 50 µg/mL) | Non-toxic | 15 mm | 12 mm | 61.9% | 86.79% | 72% | 59.74% | 119 µM (≈ 50 µg/mL) | 15 mm | 119 µM (≈ 50 µg/mL) | 1.107 mm | 1.32 mm | 12 mm |  | 
6 | CC1=NN(C(=O)c2cc3ccccc3oc2=O)C(=O)C1CNc1c(O)cc(S(=O)(=O)O)c2ccccc12 (configuration not stated) | 48 µM (≈ 25 µg/mL) | 24 µM (≈ 12.5 µg/mL) |  | inactive | 15 mm | 21.6% | 79.25% | 45.3% | 54.55% | 48 µM (≈ 25 µg/mL) | 15 mm |  | 2.16 mm | 2.715 mm | 18 mm | inactive | 
7 | CC1=NN(C(=O)c2cc3ccccc3oc2=O)C(=O)C1CNc1ccc(O)c(C(=O)O)c1 (configuration not stated) | 115 µM (≈ 50 µg/mL) | 57.4 µM (≈ 25 µg/mL) | Non-toxic | 12 mm | 12 mm | 30.9% | 50.94% | 50.9% | 35.06% | 115 µM (≈ 50 µg/mL) | 12 mm | 115 µM (≈ 50 µg/mL) | 1.939 mm | 2.396 mm | 12 mm |  | 
8 | CC1=NN(C(=O)c2cc3ccccc3oc2=O)C(=O)C1CNc1cccc(S(N)(=O)=O)c1 (configuration not stated) | 55 µM (≈ 25 µg/mL) | 55 µM (≈ 25 µg/mL) | Non-toxic | inactive | 18 mm | 67.8% | 49.06% | 79.9% | 33.77% | 55 µM (≈ 25 µg/mL) | 12 mm |  | 0.793 mm | 1.116 mm | 12 mm | inactive | 
9 | COc1ccc2c(c1)c(CC(=O)O)c(C)n2C(=O)c1ccc(Cl)cc1 [INDOMETHACIN] |  |  |  |  |  | 67.8% | 100% | 76% | 68.83% |  |  |  | 0.985 mm | 1.144 mm |  |  | 
10 | CC1=NN(C(=O)c2cc3ccccc3oc2=O)C(=O)C1CNc1ccc(C(=O)O)cc1 (configuration not stated) | 59.6 µM (≈ 25 µg/mL) | 119 µM (≈ 50 µg/mL) | Non-toxic | 18 mm | 12 mm | 63.6% | 88.68% | 72.6% | 61.04% | 119 µM (≈ 50 µg/mL) | 12 mm | 119 µM (≈ 50 µg/mL) | 1.081 mm | 1.26 mm | 14 mm |  | 
11 | CC1=NN(C(=O)c2cc3ccccc3oc2=O)C(=O)C1CNc1ccc(O)cc1 (configuration not stated) | 63.9 µM (≈ 25 µg/mL) | 63.9 µM (≈ 25 µg/mL) | Toxic | 18 mm | 12 mm | 35.6% | 60.38% | 50.7% | 41.56% | 63.9 µM (≈ 25 µg/mL) | 18 mm | 128 µM (≈ 50 µg/mL) | 1.947 mm | 2.231 mm | 18 mm |  | 
12 | COc1ccc(NCC2C(=O)N(C(=O)c3cc4ccccc4oc3=O)N=C2C)cc1 (configuration not stated) | 61.7 µM (≈ 25 µg/mL) | 30.8 µM (≈ 12.5 µg/mL) | Toxic | inactive | 15 mm | 36.1% | 47.17% | 55.1% | 32.47% | 61.7 µM (≈ 25 µg/mL) | 18 mm |  | 1.821 mm | 2.215 mm | 18 mm | inactive | 
